# US20240308985A1 (Psy Therapeutics, Inc., priority 2021, published 2024)
# Biological target: Monoacylglycerol Lipase (MAGL) (Homo sapiens (Human), UniProt Q99685)
# Assay: MAGL inhibition potency (IC50) assay with 4NPA substrate
# Assay type: biochemical
# Details: Method 6: Reaction Biology MAGL enzyme, 6 nM; read-out: MAGL Potency (Detection Method)
# Source text: The potency of certain compounds for inhibiting MAGL were obtained using the following assays. The monoacylglycerol lipase inhibitor screening assay kit from Cayman Chemical was used to measure the MAGL potency for the compounds in Table 6 and Table 7. Cayman's Monoacylglycerol Lipase Inhibitor Screening Assay provides a method for screening human MAGL inhibitors. MAGL hydrolyzes 4-nitrophenylacetate resulting in a yellow product, 4-nitrophenol, with an absorbance of 405-412 nm. MAGL Inhibition was measured by the following assay. Monoacylglycerol Lipase (MAGL) inhibition was measured using recombinant MAGL enzyme (aa 2-303 RBC, internal preparation) and the substrate 4-Nitrophenyl acetate (4NPA) (Sigma-Aldrich, N8130). Hydrolysis of the substrate in the presence of the enzyme was measured by absorbance at 405 nm. 10 μL of assay buffer (10 mM Tris pH 7.5, 1 mM EDTA, 0.9% DMSO) was added to a black 384-well non-binding plate with clear bottom (Greiner, 781906) for each reaction. […] DMSO control wells were included for reference. A 10.8 nM (1.8×) MAGL mix in assay buffer was prepared, with 25 μL added to each reaction well, for a final assay concentration of 6 nM. No enzyme wells received 25 μL of buffer. Plate was incubated at room temperature for 30 minutes. 35 mM solution of 4NPA in methanol was prepared daily. A 4.5×4NPA substrate solution was prepared in assay buffer and 10 μL was added to each reaction well, for a final assay concentration of 0.25 mM. Plate was spun for 1 minute at 1000 rpm before measuring absorbance using a CLARIOstar plate reader (BMG Labtech). A kinetic reading at 405 nm was done every minute for 30 minutes. Data was analyzed using the linear slope of the reaction progress curve and the average of the no-enzyme wells (background) was subtracted from the data. The background-subtracted slope data was converted to % activity using the average of wells with enzyme and DMSO vehicle. IC50s were calculated using GraphPad software (Sigmoidal dose response, variable slope equation). […] Table 8 provides potency measurements of MAGL inhibition measured using the Potency Assay of Example 22 above, with the following modifications described in Table C. [table]
# Sequence of Monoacylglycerol Lipase (MAGL) (Q99685 2-303): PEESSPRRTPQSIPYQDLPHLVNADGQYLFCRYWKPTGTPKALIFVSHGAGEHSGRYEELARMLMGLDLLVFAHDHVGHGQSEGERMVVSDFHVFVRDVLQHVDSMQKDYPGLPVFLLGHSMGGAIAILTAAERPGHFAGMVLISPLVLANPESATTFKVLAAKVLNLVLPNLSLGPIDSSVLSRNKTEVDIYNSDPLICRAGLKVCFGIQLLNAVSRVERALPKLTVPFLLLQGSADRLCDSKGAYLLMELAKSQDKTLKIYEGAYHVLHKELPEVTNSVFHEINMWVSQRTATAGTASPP
row,IC50,Compound
1,< 50 nM,"Cc1ccc(F)cc1-c1cc(C)n(C2CC3(C2)CN(C(=O)c2cc(O)ccc2F)C3)n1 [Compound 446, (2-fluoro-5-hydroxyphenyl){6-[3-(5-fluoro-2-tolyl)-5-methyl-1-pyrazolyl]-2-aza-2-spiro[3.3]heptyl}methanone]"
2,150 to 500 nM,"Cc1ccc(F)cc1-c1nn(C2CC3(C2)CN(C(=O)c2ccc(F)cc2OC2CC2)C3)cc1C [Compound 449, (2-cyclopropoxy-4-fluorophenyl){6-[3-(5-fluoro-2-tolyl)-4-methyl-1-pyrazolyl]-2-aza-2-spiro[3.3]beptyl}methanone]"
3,150 to 500 nM,"Cc1ccc(F)cc1-c1cc(C)n(C2CC3(C2)CN(C(=O)c2ccc(F)cc2OC2CC2)C3)n1 [Compound 450, (2-cyclopropoxy-4-fluorophenyl){6-[3-(5-fluoro-2-tolyl)-5-methyl-1-pyrazolyl]-2-aza-2-spiro[3.3]heptyl}methanone]"
4,50 to 150 nM,"Cc1ccc(F)cc1-c1cc(C)n(C2CC3(C2)CN(C(=O)c2ccc(F)cc2OC(F)F)C3)n1 [Compound 455, (2-difluoromethoxy-4-fluorophenyl){6-[3-(5-fluoro-2-tolyl)-5-methyl-1-pyrazolyl]-2-aza-2-spiro[3.3]heptyl}methanone]"

# Second part, the compound before the results:
row,Compound,IC50
1,Cc1cc(F)c(C(=O)N2CC3(CC(n4cc(C)c(-c5ccccc5C)n4)C3)C2)cc1O [Compound 443],1000 to 5100 nM
2,"Cc1cn(C2CC3(C2)CN(C(=O)c2cc(O)ccc2F)C3)nc1-c1ccccc1C(F)(F)F [Compound 444, (2-fluoro-5-hydroxyphenyl)(6-{4-methyl-3-[o-(trifluoromethyl)phenyl]-1-pyrazolyl}-2-aza-2-spiro[3.3]heptyl)methanone]",< 50 nM
3,"Cc1ccccc1-c1nn(C2CC3(C2)CN(C(=O)c2ccc(F)cc2OC2CC2)C3)cc1C [Compound 447, (2-cyclopropoxy-4-fluorophenyl){6-[4-methyl-3-(o-tolyl)-1-pyrazolyl]-2-aza-2-spiro[3.3]heptyl}methanone]",150 to 500 nM
4,"Cc1cn(C2CC3(C2)CN(C(=O)c2ccc(F)cc2OC2CC2)C3)nc1-c1ccccc1C(F)(F)F [Compound 448, (2-cyclopropoxy-4-fluorophenyl)(6-{4-methyl-3-[o-(trifluoromethyl)phenyl]-1-pyrazolyl}-2-aza-2-spiro[3.3]heptyl)methanone]",50 to 150 nM
5,"Cc1cnn(C2CC3(C2)CN(C(=O)c2ccc(F)cc2OC2CC2)C3)c1-c1ccccc1F [Compound 452, (2-cyclopropoxy-4-fluorophenyl){6-[5-(o-fluorophenyl)-4-methyl-1-pyrazolyl]-2-aza-2-spiro[3.3]beptyl}methanone]",1000 to 5100 nM

# Same assay, conditions: Method 6: Reaction Biology MAGL enzyme, 6 nM; read-out: Potency (MAGL inhibition)
row,IC50,Compound
1,> 10000 nM,Cc1ccccc1-c1ccn(C2CC3(C2)CN(C(=O)c2cc(O)ccc2F)C3)n1 [Compound 441]
2,> 10000 nM,Cc1ccccc1-c1cc(C)n(C2CC3(C2)CN(C(=O)c2cc(O)ccc2F)C3)n1 [Compound 442]
3,> 10000 nM,O=C(c1cc(O)ccc1F)N1CC2(CC(n3cc(C4CC4)c(-c4ccccc4Cl)n3)C2)C1 [Compound 445]

# Same assay, conditions: Method 11: Reaction Biology MAGL enzyme, 25 nM (name: Conc 20); read-out: MAGL Potency (Detection Method)
row,IC50,Compound
1,1000 to 5100 nM,"Cc1ccc(F)cc1-c1cc(C)n(C2CC3(C2)CN(C(=O)c2ccc(F)cc2OC(F)(F)F)C3)n1 [Compound 454, {6-[3-(5-fluoro-2-tolyl)-5-methyl-1-pyrazolyl]-2-aza-2-spiro[3.3]heptyl}(4-fluoro-2-trifluoromethoxyphenyl)methanone]"
2,500 to 1000 nM,"Cc1ccc(F)cc1-c1cc(C(F)(F)F)n(C2CC3(C2)CN(C(=O)c2ccc(F)cc2OC2CC2)C3)n1 [Compound 456, (2-cyclopropoxy-4-fluorophenyl){6-[3-(5-fluoro-2-tolyl)-5-(trifluoromethyl)-1-pyrazolyl]-2-aza-2-spiro[3.3]heptyl}methanone]"
3,1000 to 5100 nM,"Cc1ccc(F)cc1-c1cc(C(F)(F)F)nn1C1CC2(C1)CN(C(=O)c1ccc(F)cc1OC1CC1)C2 [Compound 457, (2-cyclopropoxy-4-fluorophenyl){6-[5-(5-fluoro-2-tolyl)-3-(trifluoromethyl)-1-pyrazolyl]-2-aza-2-spiro[3.3]heptyl}methanone]"
4,500 to 1000 nM,"CCOc1cc(F)ccc1C(=O)N1CC2(CC(n3nc(-c4cc(F)ccc4C)cc3C)C2)C1 [Compound 463, (2-ethoxy-4-fluorophenyl){6-[3-(5-fluoro-2-tolyl)-5-methyl-1-pyrazolyl]-2-aza-2-spiro[3.3]heptyl}methanone]"
5,150 to 500 nM,"Cc1ccc(F)cc1-c1cc(C)n(C2CC3(C2)CN(C(=O)c2ccc(F)cc2OCC(F)(F)F)C3)n1 [Compound 467, {6-[3-(5-fluoro-2-tolyl)-5-methyl-1-pyrazolyl]-2-aza-2-spiro[3.3]heptyl} [4-fluoro-2-(2,2,2-trifluoroethoxy)phenyl]methanone]"

# Second part, the compound before the results:
row,Compound,IC50
1,"COc1cc(F)ccc1C(=O)N1CC2(CC(n3nc(-c4cc(F)ccc4C)cc3C(F)(F)F)C2)C1 [Compound 458, (4-fluoro-2-methoxyphenyl){6-[3-(5-fluoro-2-tolyl)-5-(trifluoromethyl)-1-pyrazolyl]-2-aza-2-spiro[3.3]heptyl}methanone]",1000 to 5100 nM
2,CCOc1cc(F)ccc1C(=O)N1CC2(CC(n3nc(C)cc3-c3ccccc3C)C2)C1 [Compound 460],1000 to 5100 nM
3,"CCOc1cc(F)ccc1C(=O)N1CC2(CC(n3nc(-c4ccccc4C)cc3C)C2)C1 [Compound 461, (2-ethoxy-4-fluorophenyl){6-[5-methyl-3-(o-tolyl)-1-pyrazolyl]-2-aza-2-spiro[3.3]heptyl}methanone]",500 to 1000 nM
4,"CCOc1cc(F)ccc1C(=O)N1CC2(CC(n3nc(C)cc3-c3cc(F)ccc3C)C2)C1 [Compound 462, (2-ethoxy-4-fluorophenyl){6-[5-(5-fluoro-2-tolyl)-3-methyl-1-pyrazolyl]-2-aza-2-spiro[3.3]heptyl}metbanone]",1000 to 5100 nM
5,"Cc1cc(-c2ccccc2C)n(C2CC3(C2)CN(C(=O)c2ccc(F)cc2OCC(F)(F)F)C3)n1 [Compound 464, [4-fluoro-2-(2,2,2-trifluoroethoxy)phenyl]{6-[3-methyl-5-(o-tolyl)-1-pyrazolyl]-2-aza-2-spiro[3.3]heptyl}methanone]",500 to 1000 nM
6,"Cc1ccccc1-c1cc(C)n(C2CC3(C2)CN(C(=O)c2ccc(F)cc2OCC(F)(F)F)C3)n1 [Compound 465, [4-fluoro-2-(2,2,2-trifluoroethoxy)phenyl]{6-[5-methyl-3-(o-tolyl)-1-pyrazolyl]-2-aza-2-spiro[3.3]heptyl}methanone]",150 to 500 nM
7,Cc1cc(-c2cc(F)ccc2C)n(C2CC3(C2)CN(C(=O)c2ccc(F)cc2OCC(F)(F)F)C3)n1 [Compound 466],500 to 1000 nM

# Same assay, conditions: Method 12: Reaction Biology MAGL enzyme, 15 nM; read-out: MAGL Potency (Detection Method)
row,IC50,Compound
1,< 50 nM,"Cc1ccc(F)c(-c2nn(C3CC4(C3)CN(C(=O)c3cc(O)ccc3F)C4)cc2C(F)(F)F)c1 [Compound 475, (2-fluoro-5-hydroxyphenyl){6-[3-(2-fluoro-5-tolyl)-4-(trifluoromethyl)-1-pyrazolyl]-2-aza-2-spiro[3.3]heptyl}methanone]"

# Same assay, conditions: Method 13: Reaction Biology MAGL enzyme, 12 nM; read-out: MAGL Potency (Detection Method)
row,IC50,Compound
1,< 50 nM,"Cc1cn(C2CC3(C2)CN(C(=O)c2cc(O)ccc2F)C3)nc1-c1cc(F)ccc1F [Compound 477, {6-[3-(2,5-difluorophenyl)-4-methyl-1-pyrazolyl]-2-aza-2-spiro[3.3]heptyl}(2-fluoro-5-hydroxyphenyl)methanone]"

# Same assay, conditions: Method 14: Reaction Biology MAGL enzyme, 6 nM; read-out: MAGL Potency (Detection Method)
row,IC50,Compound
1,< 50 nM,"Cc1ccccc1-c1nn(C2CC3(C2)CN(C(=O)c2cc(O)ccc2F)C3)cc1C [Compound 440, (2-fluoro-5-hydroxyphenyl){6-[4-methyl-3-(o-tolyl)-1-pyrazolyl]-2-aza-2-spiro[3.3]heptyl}methanone]"
